Measurements: patent US9346770B2, “Compounds having activating effect on subtypes of peroxisome proliferator-activated receptors and its preparation method and uses” (ZHEJIANG HISUN PHARMACEUTICAL CO., LTD., priority 2010, dated 2016)

Legend:
[1] = Acute toxicity (LD50, autopsy); format: in vivo; details: orally
Excerpt: In the autopsy, no visible obvious injure was found in main visceral organs, and there was no statistical difference in the change in organ coefficient.

[2] = biological target: PPARα (Homo sapiens (Human), UniProt Q07869); experiment: Nuclear receptor reporter gene (luciferase) screening model, PPARα activation in HepG2 cells; format: cell-based; details: for Experiment results (relative activation fold) PPARα: HepG2, solvent control = 1; for EC50: HepG2 reporter gene, 6 concentrations
Sequence of PPARα (Q07869 whole entry, species assumed): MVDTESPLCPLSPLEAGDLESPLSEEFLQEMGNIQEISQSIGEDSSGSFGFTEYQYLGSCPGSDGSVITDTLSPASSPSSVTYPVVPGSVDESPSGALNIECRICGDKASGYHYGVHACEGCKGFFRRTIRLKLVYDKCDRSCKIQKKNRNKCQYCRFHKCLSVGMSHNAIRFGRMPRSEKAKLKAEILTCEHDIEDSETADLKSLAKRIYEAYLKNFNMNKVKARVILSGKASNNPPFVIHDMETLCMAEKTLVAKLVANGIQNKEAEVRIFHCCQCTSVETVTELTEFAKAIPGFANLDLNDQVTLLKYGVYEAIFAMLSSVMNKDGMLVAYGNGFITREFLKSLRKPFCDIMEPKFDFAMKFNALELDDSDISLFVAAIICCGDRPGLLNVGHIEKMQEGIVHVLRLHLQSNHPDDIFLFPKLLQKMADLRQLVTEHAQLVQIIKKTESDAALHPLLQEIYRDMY
Sequence of PPARα (P19793 whole entry partner, species assumed): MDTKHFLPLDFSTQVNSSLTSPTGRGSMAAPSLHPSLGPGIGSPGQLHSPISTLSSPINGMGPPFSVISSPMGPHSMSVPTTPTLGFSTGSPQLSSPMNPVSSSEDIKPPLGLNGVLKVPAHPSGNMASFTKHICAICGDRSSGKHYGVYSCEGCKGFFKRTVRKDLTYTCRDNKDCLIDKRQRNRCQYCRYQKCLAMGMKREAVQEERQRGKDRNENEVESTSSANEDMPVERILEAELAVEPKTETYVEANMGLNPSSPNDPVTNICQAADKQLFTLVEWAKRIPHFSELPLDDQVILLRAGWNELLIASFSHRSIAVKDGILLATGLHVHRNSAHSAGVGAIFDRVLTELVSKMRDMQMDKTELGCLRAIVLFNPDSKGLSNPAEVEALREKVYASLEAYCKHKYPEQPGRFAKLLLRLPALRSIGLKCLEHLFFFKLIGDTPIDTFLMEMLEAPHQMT
Excerpt: (§1) Using a reporter gene method, a screening model for screening a nuclear receptor agonist in living cells is designed on the basis of the principal that a nuclear receptor can activate transcription of its downstream gene after being activated. A reporter gene plasmid is constructed, in which the DNA binding sequence for the nuclear receptor (NRE) is inserted at the upstream of a luciferase gene, such that the expression of the luciferase gene is regulated by the nuclear receptor. The reporter gene plasmid is transferred into a cell simultaneously with the nuclear receptor. The nuclear receptor will be activated when a nuclear receptor agonist presents in the cell culture medium. The receptor being activated can induce the expression of the luciferase gene, while the amount of generated luciferase can be determined with its luminescent substrate. In this way, the intensity of activation of the nuclear receptor by the compound can be determined by observing the luminescence intensity. For the calibration of the experimental error caused by factors such as transfection efficiency, amount of inoculated cells, toxicity of the compound, etc, a GFP plasmid is co-transfected simultaneously as the internal reference. In the analysis of the experimental results, the luminescent values tested for all wells are calibrated with GFP values. The experimental results are expressed as relative activation fold, with a value of 1 for the solvent control. The greater the fold is, the higher the activation capacity represents.
(§2) The detailed procedure is described as follows:
(§3) Hepatocarcinoma cell HepG2 (from ATCC, American Type Culture Collection) was cultured in a DMEM medium supplemented with 10% heat-inactivated fetal bovine serum (FBS, Invitogen, Grand Island, N.Y., USA) in a T-75 culture flask (Greiner, Germany) placed in a 5% CO2 incubator at 37° C. and 100% relative humidity.
(§4) On the next day, when the cells in the 96-well culture plate grew up to 50-80% confluency, cell transfection was performed. The cell co-transfection system comprised FuGene6 transfection agent (Roche Molecular Biochemicals, Indianapolis, Ind., U.S.A.) and 60 ng DNA (10 ng hRXR, 10 ng pCMV βGal, 10 ng nuclear receptor expression plasmid RXR/PPARα, δ, γ, 30 ng GFP fluorescence reporter gene plasmid, respectively).
(§5) The cell culture medium was discarded immediately after 24 hours of transfection and replaced by 200 μl fresh DMEM medium containing the test medicament (with 10% FBS treated by activated carbon). The final concentration gradients of the test medicament were 10 μM, 5 μM, 1 μM, 0.1 μM, 0.01 μM, 0.001 μM, and 0 μM. 0.05 μM 2-bromostearic acid (purchased from Sigma, USA) was used as the positive control. The final concentration of DMSO in each well was 0.1%.
(§6) After 24 h treatment with the medicament, the cells were lysed with a lysis solution (Cell Culture Lysis buffer, Promega) and centrifuged, and the supernatant was collected. The supernatant was reacted with a fluorescence assay kit (Promega) and counted by a fluorometer (Ascent Fluoroskan FL reader, Thermo Labsystems, Finland), and the relative intensity of luciferase was determined. For the assay of the β-galactosidase activity used in the experiment as the internal reference (the internal reference for calibrating the transfection efficiency), 50 μl of the supernatant was transferred into a fresh microplate, treated with a Promega kit, and the value was read with a microplate reader at a wavelength of 405 nm (Bio-tech Instruments Inc., Winooski, Vt., USA) (Sauerberg, P.; Olsen, G. S.; Jeppesen, L.; Mogensen, J. P. et al., J. Med. Chem., 2007, 50, 1495-1503).
(§7) In the present screening protocol, it was calculated according to the activation of the receptor by the sample at 6 different concentrations.
(§8) The concentration-activity profile of the effects of a compound was fitted by carrying out iterative computation according to the following formula, and corresponding EC50 was calculated: […]

[3] = biological target: PPARγ (Homo sapiens (Human), UniProt P37231); experiment: Nuclear receptor reporter gene (luciferase) screening model, PPARγ activation in HepG2 cells; format: cell-based; details: for Experiment results (relative activation fold) PPARγ: HepG2, solvent control = 1; for EC50: HepG2 reporter gene, 6 concentrations
Sequence of PPARγ (P37231 whole entry, species assumed): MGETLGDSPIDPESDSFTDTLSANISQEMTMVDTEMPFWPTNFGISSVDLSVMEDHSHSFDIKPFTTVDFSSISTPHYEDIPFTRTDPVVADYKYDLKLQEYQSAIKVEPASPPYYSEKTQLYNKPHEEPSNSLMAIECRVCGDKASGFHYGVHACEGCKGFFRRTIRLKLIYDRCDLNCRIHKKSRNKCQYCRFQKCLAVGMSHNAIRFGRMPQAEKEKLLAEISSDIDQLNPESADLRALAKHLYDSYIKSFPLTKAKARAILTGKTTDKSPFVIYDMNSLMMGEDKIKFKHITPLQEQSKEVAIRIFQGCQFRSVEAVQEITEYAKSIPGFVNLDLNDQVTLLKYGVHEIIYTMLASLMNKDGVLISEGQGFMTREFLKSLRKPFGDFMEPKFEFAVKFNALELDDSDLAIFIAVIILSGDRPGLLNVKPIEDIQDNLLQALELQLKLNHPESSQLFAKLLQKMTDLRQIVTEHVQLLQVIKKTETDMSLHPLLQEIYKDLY
Sequence of PPARγ (P19793 whole entry partner, species assumed): as the sequence (P19793 whole entry partner, species assumed) above
Excerpt: as §1, §2, §3, §4, §5, §6, §7, §8

[4] = biological target: PPARδ (Homo sapiens (Human), UniProt Q03181); experiment: Nuclear receptor reporter gene (luciferase) screening model, PPARδ activation in HepG2 cells; format: cell-based; details: for Experiment results (relative activation fold) PPARδ: HepG2, solvent control = 1; for EC50: HepG2 reporter gene, 6 concentrations
Sequence of PPARδ (Q03181 whole entry, species assumed): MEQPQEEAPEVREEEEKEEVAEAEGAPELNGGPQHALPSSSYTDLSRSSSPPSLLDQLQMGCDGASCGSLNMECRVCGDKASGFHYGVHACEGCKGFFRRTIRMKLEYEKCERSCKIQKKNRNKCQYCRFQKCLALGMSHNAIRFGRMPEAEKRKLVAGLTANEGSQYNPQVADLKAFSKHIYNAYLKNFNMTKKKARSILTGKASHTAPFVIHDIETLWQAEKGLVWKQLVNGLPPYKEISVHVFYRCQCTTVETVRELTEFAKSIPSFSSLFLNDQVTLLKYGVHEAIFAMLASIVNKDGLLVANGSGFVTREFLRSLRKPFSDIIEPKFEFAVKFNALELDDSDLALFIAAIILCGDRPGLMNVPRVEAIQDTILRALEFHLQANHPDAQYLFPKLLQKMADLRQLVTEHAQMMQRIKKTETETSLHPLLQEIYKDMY
Sequence of PPARδ (P19793 whole entry partner, species assumed): as the sequence (P19793 whole entry partner, species assumed) above
Excerpt: as §1, §2, §3, §4, §5, §6, §7, §8

| Experiment results (relative activation fold) PPARα ([2]; 0.001 uM) [fold] | Experiment results (relative activation fold) PPARα ([2]; 0.01 uM) [fold] | Experiment results (relative activation fold) PPARα ([2]; 0.1 uM) [fold] | Experiment results (relative activation fold) PPARα ([2]; 1 uM) [fold] | Experiment results (relative activation fold) PPARα ([2]; 5 uM) [fold] | Experiment results (relative activation fold) PPARα ([2]; 10 uM) [fold] | EC50 [2] [nM] | Experiment results (relative activation fold) PPARγ ([3]; 0.001 uM) [fold] | Experiment results (relative activation fold) PPARγ ([3]; 0.01 uM) [fold] | Experiment results (relative activation fold) PPARγ ([3]; 0.1 uM) [fold] | Experiment results (relative activation fold) PPARγ ([3]; 1 uM) [fold] | Experiment results (relative activation fold) PPARγ ([3]; 5 uM) [fold] | Experiment results (relative activation fold) PPARγ ([3]; 10 uM) [fold] | EC50 [3] [nM] | Experiment results (relative activation fold) PPARδ ([4]; 0.001 uM) [fold] | Experiment results (relative activation fold) PPARδ ([4]; 0.01 uM) [fold] | Experiment results (relative activation fold) PPARδ ([4]; 0.1 uM) [fold] | Experiment results (relative activation fold) PPARδ ([4]; 1 uM) [fold] | Experiment results (relative activation fold) PPARδ ([4]; 5 uM) [fold] | Experiment results (relative activation fold) PPARδ ([4]; 10 uM) [fold] | Compound | other results |
| --- | --- | --- | --- | --- | --- | --- | --- | --- | --- | --- | --- | --- | --- | --- | --- | --- | --- | --- | --- | --- | --- |
| – | – | – | – | – | – | – | – | – | – | – | – | – | – | – | – | – | – | – | – | CN(CCOc1ccc(CC2SC(=O)NC2=O)cc1)c1ccccn1 (stereo not shown) [rosiglitazone] | LD50 [1]: 3000 to 4000 mg/kg |
| 1.33 | 1.23 | 1.27 | 1.53 | 1.76 | 1.96 | 2630 | 0.92 | 1.02 | 1.04 | 1.74 | 1.63 | 2.53 | 6760 | 0.99 | 0.87 | 1.09 | 1.11 | 1.27 | 1.63 | CCc1cc(OCCc2nc(-c3ccc(-c4nnn[nH]4)cc3)oc2C)ccc1CCC(=O)O [Compound 6] | EC50 [4]: 6760 nM |
| 1.14 | 1.20 | 1.18 | 1.65 | 2.31 | 2.96 | 5500 | 2.70 | 3.78 | 3.81 | 5.17 | 4.19 | 5.88 | 89 | 1.45 | 1.53 | 2.25 | 3.51 | 4.22 | 4.60 | CCc1cc(OCCc2nc(-c3ccc(C(C)(C)C)cc3)oc2C)ccc1CCC(=O)O [Compound 4] | EC50 [4]: 851 nM |
| 0.99 | 1.11 | 1.19 | 1.28 | 1.33 | 1.79 | 4 | 1.10 | 1.30 | 1.32 | 1.56 | 1.78 | 2.06 | 5 | 1.11 | 1.17 | 1.22 | 1.34 | 1.50 | 1.94 | CCc1cc(OCCc2nc(-c3ccc(C(F)(F)F)cc3)oc2C)ccc1CCC(=O)O [Compound 3] | activation effect on PPARα receptor (in words) ([2]; screening results): better activation effects; activation effect on PPARγ receptor (in words) ([3]; screening results): better activation effects; EC50 [4]: < 1 nM; activation effect on PPARδ receptor (in words) ([4]; screening results): better activation effects |
